Test results reported in publication PMC11284203 (Scientific Reports, 2024).
“Also recorded” adds a separate entry of the source.

The compounds below were run against T1, α-glucosidase (Saccharomyces cerevisiae, UniProt P53341) (assay: not given). Conditions: Lineweaver–Burk plot.
T1 sequence (P53341 whole entry): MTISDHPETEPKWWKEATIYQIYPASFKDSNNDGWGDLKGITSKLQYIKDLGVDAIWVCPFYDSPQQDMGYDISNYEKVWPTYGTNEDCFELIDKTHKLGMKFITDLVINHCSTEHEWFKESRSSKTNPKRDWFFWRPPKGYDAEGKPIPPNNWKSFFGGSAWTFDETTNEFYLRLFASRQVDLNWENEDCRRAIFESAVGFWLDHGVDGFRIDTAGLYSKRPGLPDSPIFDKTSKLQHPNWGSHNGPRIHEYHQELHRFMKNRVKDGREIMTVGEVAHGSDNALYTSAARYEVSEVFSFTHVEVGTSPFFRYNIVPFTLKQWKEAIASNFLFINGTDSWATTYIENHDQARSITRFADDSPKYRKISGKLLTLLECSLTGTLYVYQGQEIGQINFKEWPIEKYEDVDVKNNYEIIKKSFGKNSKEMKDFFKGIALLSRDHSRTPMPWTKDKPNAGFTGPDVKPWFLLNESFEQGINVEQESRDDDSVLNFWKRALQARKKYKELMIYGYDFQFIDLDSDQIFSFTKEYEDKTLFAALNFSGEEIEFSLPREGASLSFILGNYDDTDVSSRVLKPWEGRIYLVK
In the case of `COc1ccc2nc3cc(Cl)ccc3c(SCc3cn(Cc4ccc(F)cc4)nn3)c2c1` [Compound 7h, 9-((1-(4-fluorobenzyl)-1H-1,2,3-triazol-4-yl)methylthio)-6-chloro-2-methoxyacridine], the mode of inhibition is reported as “competitive inhibitor; also recorded: competitive inhibition”.

The compounds below were run against T1, α-glucosidase (assay: biochemical). Conditions: not given.
For `COc1ccc2nc3cc(Cl)ccc3c(SCc3cn(Cc4ccc(F)cc4)nn3)c2c1` [Compound 7h, 9-((1-(4-fluorobenzyl)-1H-1,2,3-triazol-4-yl)methylthio)-6-chloro-2-methoxyacridine], the Ki was 98 µM.

Each compound was assayed against T1, α-glucosidase (assay: α-glucosidase inhibition assay). Conditions: not given.
Compound `COc1ccc2nc3cc(Cl)ccc3c(SCc3cn(Cc4ccccc4)nn3)c2c1` [Compound 7a, 9-((1-benzyl-1H-1,2,3-triazol-4-yl)methylthio)-6-chloro-2-methoxyacridine] has an IC50 of 169.1 ± 0.9 µM.
With `COc1cccc(Cn2cc(CSc3c4ccc(Cl)cc4nc4ccc(OC)cc34)nn2)c1` [Compound 7b, 9-((1-(3-methoxybenzyl)-1H-1,2,3-triazol-4-yl)methylthio)-6-chloro-2-methoxyacridine] the IC50 was greater than 750 µM.
Compound `COc1ccc(Cn2cc(CSc3c4ccc(Cl)cc4nc4ccc(OC)cc34)nn2)cc1` [Compound 7c, 9-((1-(4-methoxybenzyl)-1H-1,2,3-triazol-4-yl)methylthio)-6-chloro-2-methoxyacridine] has an IC50 greater than 750 µM.
`COc1ccc2nc3cc(Cl)ccc3c(SCc3cn(Cc4ccccc4C)nn3)c2c1` [Compound 7d, 6-chloro-2-methoxy-9-(((1-(2-methylbenzyl)-1H-1,2,3-triazol-4yl)methyl)thio)acridine] showed an IC50 of 482 ± 0.2 µM.
Work on `COc1ccc2nc3cc(Cl)ccc3c(SCc3cn(Cc4cccc(C)c4)nn3)c2c1` [Compound 7e, 6-chloro-2-methoxy-9-(((1-(3-methylbenzyl)-1H-1,2,3-triazol-4-yl)methyl)thio)acridine] yielded an IC50 greater than 750 µM.
With `COc1ccc2nc3cc(Cl)ccc3c(SCc3cn(Cc4ccc(C)cc4)nn3)c2c1` [Compound 7f, 6-chloro-2-methoxy-9-(((1-(4-methylbenzyl)-1H-1,2,3-triazol-4-yl)methyl)thio) acridine] the IC50 was 123.1 ± 0.8 µM.
For `COc1ccc2nc3cc(Cl)ccc3c(SCc3cn(Cc4cccc(F)c4)nn3)c2c1` [Compound 7g, 9-((1-(3-fluorobenzyl) -1H-1,2,3-triazol-4-yl)methylthio) -6-chloro-2-methoxyacridine], the IC50 was 164 ± 0.6 µM.
`COc1ccc2nc3cc(Cl)ccc3c(SCc3cn(Cc4ccc(F)cc4)nn3)c2c1` [Compound 7h, 9-((1-(4-fluorobenzyl)-1H-1,2,3-triazol-4-yl)methylthio)-6-chloro-2-methoxyacridine] gave an IC50 of 98 ± 0.3 µM.
`COc1ccc2nc3cc(Cl)ccc3c(SCc3cn(Cc4ccccc4Cl)nn3)c2c1` [Compound 7i, 9-((1-(2-chlorobenzyl)-1H-1,2,3-triazol-4-yl)methylthio) -6-chloro-2-methoxyacridine] gave an IC50 greater than 750 µM.
Work on `COc1ccc2nc3cc(Cl)ccc3c(SCc3cn(Cc4ccccc4Br)nn3)c2c1` [Compound 7j, 9-((1-(2-bromobenzyl)-1H-1,2,3-triazol-4-yl)methylthio)-6-chloro-2-methoxyacridine] yielded an IC50 of 302.8 ± 0.6 µM.
Compound `COc1ccc2nc3cc(Cl)ccc3c(SCc3cn(Cc4cccc(Cl)c4Cl)nn3)c2c1` [Compound 7k, 9-((1-(2,3-dichlorobenzyl)-1H-1,2,3-triazol-4-yl)methylthio)-6-chloro-2-methoxyacridine] has an IC50 greater than 750 µM.
Work on `COc1ccc2nc3cc(Cl)ccc3c(SCc3cn(Cc4ccc(Cl)cc4Cl)nn3)c2c1` [Compound 7l, 9-((1-(2,4-dichlorobenzyl)-1H-1,2,3-triazol-4-yl)methylthio)-6-chloro-2-methoxyacridine] yielded an IC50 of 229.2 ± 1.3 µM.
Compound `COc1ccc2nc3cc(Cl)ccc3c(SCc3cn(Cc4ccccc4[N+](=O)[O-])nn3)c2c1` [Compound 7m, 9-((1-(2-nitrobenzyl)-1H-1,2,3-triazol-4-yl)methylthio)-6-chloro-2methoxyacridine] has an IC50 greater than 750 µM.
`COc1ccc2nc3cc(Cl)ccc3c(SCc3cn(Cc4ccc([N+](=O)[O-])cc4)nn3)c2c1` [Compound 7n, 9-((1-(4-nitrobenzyl)-1H-1,2,3-triazol-4-yl)methylthio) -6-chloro-2-methoxyacridine] showed an IC50 greater than 750 µM.
